The molecules below were run against human NaV 1.8 (Homo sapiens, UniProt Q9Y5Y9) (assay: E-VIPR assay detecting and measuring NaV inhibition properties). Conditions: HEK cells expressing truncated human NaV 1.8; in the presence of human serum (compound numbers followed by *); read-out: IC50 in the E-VIPR Assay, performed in the presence of human serum.
Sequence of human NaV 1.8 (Q9Y5Y9 126-399 limits assumed): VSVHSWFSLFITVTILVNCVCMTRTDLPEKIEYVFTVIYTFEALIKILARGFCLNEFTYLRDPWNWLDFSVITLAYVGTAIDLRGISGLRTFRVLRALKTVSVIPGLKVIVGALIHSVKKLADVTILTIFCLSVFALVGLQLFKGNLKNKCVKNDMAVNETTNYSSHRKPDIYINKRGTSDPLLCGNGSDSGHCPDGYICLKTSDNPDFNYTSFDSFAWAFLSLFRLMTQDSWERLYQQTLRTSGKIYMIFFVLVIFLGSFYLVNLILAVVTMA
Sequence of human NaV 1.8 (Q9Y5Y9 660-890 limits assumed): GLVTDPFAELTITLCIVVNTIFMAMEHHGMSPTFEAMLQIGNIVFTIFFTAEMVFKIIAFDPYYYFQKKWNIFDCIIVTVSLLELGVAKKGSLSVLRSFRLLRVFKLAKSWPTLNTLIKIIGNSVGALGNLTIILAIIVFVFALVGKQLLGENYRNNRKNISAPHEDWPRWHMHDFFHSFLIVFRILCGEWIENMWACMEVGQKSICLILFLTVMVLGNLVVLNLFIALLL
Sequence of human NaV 1.8 (Q9Y5Y9 1148-1722 limits assumed): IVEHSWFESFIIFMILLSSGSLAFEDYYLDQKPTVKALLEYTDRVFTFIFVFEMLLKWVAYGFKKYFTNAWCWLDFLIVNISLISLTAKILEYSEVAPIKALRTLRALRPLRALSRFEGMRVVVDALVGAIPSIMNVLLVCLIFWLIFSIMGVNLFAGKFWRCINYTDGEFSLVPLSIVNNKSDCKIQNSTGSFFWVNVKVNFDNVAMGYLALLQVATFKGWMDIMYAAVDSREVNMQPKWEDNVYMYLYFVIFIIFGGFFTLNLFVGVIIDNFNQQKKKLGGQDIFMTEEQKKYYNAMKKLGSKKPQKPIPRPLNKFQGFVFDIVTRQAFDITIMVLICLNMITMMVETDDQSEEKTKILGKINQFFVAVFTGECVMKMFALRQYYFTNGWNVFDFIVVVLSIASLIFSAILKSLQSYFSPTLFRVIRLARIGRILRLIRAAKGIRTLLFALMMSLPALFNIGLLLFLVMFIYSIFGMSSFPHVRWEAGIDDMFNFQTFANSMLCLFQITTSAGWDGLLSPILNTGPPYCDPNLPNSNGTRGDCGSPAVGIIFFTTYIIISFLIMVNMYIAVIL
Assay type: cell-based
Procedure, shortened: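 Membrane potential was followed by coumarin/oxonol FRET during electrical field stimulation of matrigel-seeded HEK cells carrying truncated human NaV1.8 plus KIR2.1. Dosing used 11 points, 3-fold steps, top 300 nM final, 0.625% DMSO, with or without 25% human serum.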
`COc1c([C@H]2[C@@H](C)[C@@H](C)O[C@@H]2C(=O)Nc2ccnc(C(O)CO)c2)ccc(F)c1F` (relative stereo) [Compound 719, rel-(2S,3R,4R,5R)-3-(3,4-difluoro-2-methoxyphenyl)-N-(2-(1,2-dihydroxyethyl)pyridin-4-yl)-4,5-dimethyltetrahydrofuran-2-carboxamide] was tested, and the IC50 was at least 1000 nM. Molecule `COc1cc(F)ccc1[C@H]1C[C@@](C)(C(F)(F)F)O[C@@H]1C(=O)Nc1ccnc(S(C)(=O)=O)c1` (stereo in doubt) [Compound 713, rel-(2S,3R,5S)-3-(4-fluoro-2-methoxyphenyl)-5-methyl-N-(2-(methylsulfonyl)pyridin-4-yl)-5-(trifluoromethyl)tetrahydrofuran-2-carboxamide] has an IC50 of at least 1000 nM. For `C[C@@H]1[C@H](c2ccc(F)c(F)c2OC(F)F)[C@@H](C(=O)Nc2cc(S(C)(=O)=O)c[n+]([O-])c2)O[C@]1(C)C(F)(F)F` (single isomer, unassigned) [Compound 87], the IC50 was at least 1000 nM.

Same assay, conditions: HEK cells expressing truncated human NaV 1.8; no human serum; read-out: IC50 in the E-VIPR Assay
`COc1c([C@H]2[C@H](C(=O)Nc3ccnc(N4C[C@@H]5C[C@@H](N5)C4=O)c3)O[C@@](C)(C(F)(F)F)[C@H]2C)ccc(F)c1F` (single isomer, unassigned) [Compound 492, rel-(2R*,3S*,4S*,5R*)-3-(3,4-difluoro-2-methoxyphenyl)-4,5-dimethyl-N-(2-((1R,5S)-2-oxo-3,6-diazabicyclo[3.1.1]heptan-3-yl)pyridin-4-yl)-5-(trifluoromethyl)tetrahydrofuran-2-carboxamide] gave an IC50 of 10 to 100 nM. With `C[C@H]1[C@@H](c2ccc(F)c(F)c2OC(F)F)[C@H](C(=O)Nc2ccnc(CC(C)(C)O)c2)O[C@@]1(C)C(F)(F)F` (single isomer, unassigned) [Compound 464] the IC50 was 10 to 100 nM. For `COc1c([C@H]2[C@H](C(=O)Nc3ccnc(C4COCCN4C)c3)O[C@@](C)(C(F)(F)F)[C@H]2C)ccc(F)c1F` (single isomer, unassigned) [Compound 364, rel-(2R*,3S*,4S*,5R*)-3-(3,4-difluoro-2-methoxyphenyl)-4,5-dimethyl-N-(2-(4-methylmorpholin-3-yl)pyridin-4-yl)-5-(trifluoromethyl)tetrahydrofuran-2-carboxamide], the IC50 was under 10 nM. In the case of `Cc1nn(C(F)F)cc1NC(=O)[C@@H]1O[C@@](C)(C(F)(F)F)[C@@H](C)[C@H]1c1ccc(F)c(F)c1CCc1cn[nH]c1` [Compound 681, (2R,3S,4S,5R)-3-(2-(2-(1H-pyrazol-4-yl)ethyl)-3,4-difluorophenyl)-N-(1-(difluoromethyl)-3-methyl-1H-pyrazol-4-yl)-4,5-dimethyl-5-(trifluoromethyl)tetrahydrofuran-2-carboxamide], the IC50 is reported as 10 to 100 nM. Molecule `Cc1cnc(COc2c([C@H]3[C@H](C(=O)Nc4cccnc4)O[C@@](C)(C(F)(F)F)[C@H]3C)ccc(F)c2F)n1C` [Compound 651, (2R,3S,4S,5R)-3-(2-((1,5-dimethyl-1H-imidazol-2-yl)methoxy)-3,4-difluorophenyl)-4,5-dimethyl-N-(pyridin-3-yl)-5-(trifluoromethyl)tetrahydrofuran-2-carboxamide] has an IC50 of under 10 nM. `COCC(c1ccc(NC(=O)[C@@H]2O[C@@](C)(C(F)(F)F)[C@@H](C)[C@H]2c2ccc(F)c(F)c2OC)cn1)N(C)C` (single isomer, unassigned) [Compound 426, rel-(2R*,3S*,4S*,5R*)-3-(3,4-difluoro-2-methoxyphenyl)-N-(6-(1-(dimethylamino)-2-methoxyethyl)pyridin-3-yl)-4,5-dimethyl-5-(trifluoromethyl)-tetrahydrofuran-2-carboxamide] showed an IC50 of 100 to 1000 nM. With `COc1c([C@H]2[C@H](C(=O)NCc3nc(C(C)C)no3)O[C@@](C)(C(F)(F)F)[C@H]2C)ccc(F)c1F` [Compound 289, (2R,3S,4S,5R)-3-(3,4-difluoro-2-methoxyphenyl)-N-((3-isopropyl-1,2,4-oxadiazol-5-yl)methyl)-4,5-dimethyl-5-(trifluoromethyl)tetrahydrofuran-2-carboxamide] the IC50 was at least 1000 nM. `COc1c([C@H]2[C@H](C(=O)Nc3ccnc(N4C[C@H]5C[C@H](N5)C4=O)c3)O[C@@](C)(C(F)(F)F)[C@H]2C)ccc(F)c1F` (single isomer, unassigned) [Compound 491, rel-(2R*,3S*,4S*,5R*)-3-(3,4-difluoro-2-methoxyphenyl)-4,5-dimethyl-N-(2-((1S,5R)-2-oxo-3,6-diazabicyclo[3.1.1]heptan-3-yl)pyridin-4-yl)-5-(trifluoromethyl)tetrahydrofuran-2-carboxamide] gave an IC50 of 10 to 100 nM. `CCOc1c([C@@H]2[C@@H](C(=O)Nc3ccnc(S(C)(=O)=O)c3)O[C@](C)(C(F)(F)F)[C@@H]2C)ccc(F)c1F` (stereo in doubt) [Compound 4, rel-(2S,3R,4R,5S)-3-(2-ethoxy-3,4-difluorophenyl)-4,5-dimethyl-N-(2-(methylsulfonyl)pyridin-4-yl)-5-(trifluoromethyl)tetrahydrofuran-2-carboxamide] gave an IC50 of at least 1000 nM. `COc1c([C@H]2[C@H](C(=O)Nc3ccc(-c4nc(C)no4)nc3)O[C@@](C)(C(F)(F)F)[C@H]2C)ccc(F)c1F` [Compound 393, (2R,3S,4S,5R)-3-(3,4-difluoro-2-methoxyphenyl)-4,5-dimethyl-N-(6-(3-methyl-1,2,4-oxadiazol-5-yl)pyridin-3-yl)-5-(trifluoromethyl)-tetrahydrofuran-2-carboxamide] showed an IC50 of 100 to 1000 nM. For `C[C@H]1[C@@H](c2ccc(F)c(F)c2OCCN2CCOCC2)[C@H](C(=O)Nc2cccnc2)O[C@@]1(C)C(F)(F)F` [Compound 587, (2R,3S,4S,5R)-3-(3,4-difluoro-2-(2-morpholinoethoxy)phenyl)-4,5-dimethyl-N-(pyridin-3-yl)-5-(trifluoromethyl)tetrahydrofuran-2-carboxamide], the IC50 was 10 to 100 nM. `COc1c([C@H]2[C@H](C(=O)Nc3ccnc(C4(N)COC4)c3)O[C@@](C)(C(F)(F)F)[C@H]2C)ccc(F)c1F` [Compound 340, (2R,3S,4S,5R)-N-(2-(3-aminooxetan-3-yl)pyridin-4-yl)-3-(3,4-difluoro-2-methoxyphenyl)-4,5-dimethyl-5-(trifluoromethyl)-tetrahydrofuran-2-carboxamide] gave an IC50 of under 10 nM. `CC1C(c2ccc(F)c(F)c2OCCO)C(C(=O)Nc2ncn(C3CC(F)C3)n2)OC1(C)C(F)(F)F` [Compound 554, (2R,3S,4S,5R)-3-(3,4-difluoro-2-(2-hydroxyethoxy)phenyl)-N-(1-((15,3S)-3-fluorocyclobutyl)-1H-1,2,4-triazol-3-yl)-4,5-dimethyl-5-(trifluoromethyl)tetrahydrofuran-2-carboxamide] gave an IC50 of at least 1000 nM. Molecule `COc1c([C@H]2[C@H](C(=O)Nc3cc(C(O)CF)ncc3F)O[C@@](C)(C(F)(F)F)[C@H]2C)ccc(F)c1F` (single isomer, unassigned) [Compound 24] has an IC50 of under 10 nM. With `C[C@H]1[C@@H](c2ccc(F)c(F)c2OCCO)[C@H](C(=O)Nc2ccn(C)c(=O)c2)O[C@@]1(C)C(F)(F)F` [Compound 541, (2R,3S,4S,5R)-3-(3,4-difluoro-2-(2-hydroxyethoxy)phenyl)-4,5-dimethyl-N-(1-methyl-2-oxo-1,2-dihydropyridin-4-yl)-5-(trifluoromethyl)tetrahydrofuran-2-carboxamide] the IC50 was 10 to 100 nM. `C[C@H]1[C@@H](c2ccc(F)c(F)c2OC(F)F)[C@H](C(=O)Nc2ccnnc2)O[C@@]1(C)C(F)(F)F` (stereo in doubt) [Compound 64, rel-(2R,3S,4S,5R)-3-(2-(difluoromethoxy)-3,4-difluorophenyl)-4,5-dimethyl-N-(pyridazin-4-yl)-5-(trifluoromethyl)tetrahydrofuran-2-carboxamide] was tested, and the IC50 was under 10 nM. `COc1c([C@H]2[C@H](C(=O)Nc3cnc4c(c3)CCC4O)O[C@@](C)(C(F)(F)F)[C@H]2C)ccc(F)c1F` (single isomer, unassigned) [Compound 433, rel-(2R*,3S*,4S*,5R*)-3-(3,4-difluoro-2-methoxyphenyl)-N-(7-hydroxy-6,7-dihydro-5H-cyclopenta[b]pyridin-3-yl)-4,5-dimethyl-5-(trifluoromethyl)tetrahydrofuran-2-carboxamide] was tested, and the IC50 was 100 to 1000 nM. `CNC1(c2cc(NC(=O)[C@@H]3O[C@@](C)(C(F)(F)F)[C@@H](C)[C@H]3c3ccc(F)c(F)c3OC)ccn2)COC1` [Compound 361, (2R,3S,4S,5R)-3-(3,4-difluoro-2-methoxyphenyl)-4,5-dimethyl-N-(2-(3-(methylamino)oxetan-3-yl)pyridin-4-yl)-5-(trifluoromethyl)tetrahydrofuran-2-carboxamide] was tested, and the IC50 was under 10 nM. For `C[C@H]1[C@@H](c2ccc(F)c(F)c2OCCO)[C@H](C(=O)Nc2cnc3nnn(C)c3c2)O[C@@]1(C)C(F)(F)F` [Compound 565, (2R,3S,4S,5R)-3-(3,4-difluoro-2-(2-hydroxyethoxy)phenyl)-4,5-dimethyl-N-(1-methyl-1H-[1,2,3]triazolo[4,5-b]pyridin-6-yl)-5-(trifluoromethyl)tetrahydrofuran-2-carboxamide], the IC50 was 10 to 100 nM. For `COc1c([C@H]2[C@H](C(=O)Nc3ccnc(CC(C)(C)O)c3)O[C@@](C)(C(F)(F)F)[C@H]2C)ccc(F)c1F` [Compound 405, (2R,3S,4S,5R)-3-(3,4-difluoro-2-methoxy-phenyl)-N-[2-(2-hydroxy-2-methyl-propyl)-4-pyridyl]-4,5-dimethyl-5-(trifluoromethyl)tetrahydrofuran-2-carboxamide], the IC50 was 10 to 100 nM. In the case of `COc1c([C@H]2[C@H](C(=O)Nc3ccnc(N4C[C@H](C)N(C)CC4=O)c3)O[C@@](C)(C(F)(F)F)[C@H]2C)ccc(F)c1F` [Compound 474, (2R,3S,4S,5R)-3-(3,4-difluoro-2-methoxyphenyl)-N-(2-((S)-4,5-dimethyl-2-oxopiperazin-1-yl)pyridin-4-yl)-4,5-dimethyl-5-(trifluoromethyl)tetrahydrofuran-2-carboxamide], the IC50 is reported as under 10 nM.
